Assays:
Type in all cases: in vivo
[1] = system: Alopecurus myosuroides (ALOMY); assay: Example B pre-emergence herbicidal activity, glasshouse pot test; details: 312 h, rate 1000 g/ha, evaluated after 13 days, read-out: Pre-emergence activity ALOMY (100=total damage to plant; 0=no damage to plant)
Outline: (§1)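 Damage rated 13 days after treatment on a 0 (no damage) to 100 (total damage) scale. Spray of acetone/water (50:50) with 0.5% Tween 20 went onto soil-sown pots at day 1 (pre-emergence) or day 8 (post-emergence); glasshouse kept at 24/16 °C, 14 h light, 65% humidity.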

[2] = system: Amaranthus retroflexus (AMARE); assay: as above; details: 312 h, rate 1000 g/ha, evaluated after 13 days, read-out: Pre-emergence activity AMARE (100=total damage to plant; 0=no damage to plant)
Outline: as §1

Avena fatua (AVEFA) [3] = assay: as above; details: 312 h, rate 1000 g/ha, evaluated after 13 days, read-out: Pre-emergence activity AVEFA (100=total damage to plant; 0=no damage to plant)
Outline: as §1

Solanum nigrum (SOLNI) [4] = assay: as above; details: 312 h, rate 1000 g/ha, evaluated after 13 days, read-out: Pre-emergence activity SOLNI (100=total damage to plant; 0=no damage to plant)
Outline: as §1

Setaria faberi (SETFA) [5] = assay: as above; details: 312 h, rate 1000 g/ha, evaluated after 13 days, read-out: Pre-emergence activity SETFA (100=total damage to plant; 0=no damage to plant)
Outline: as §1

[6] = system: Echinochloa crus-galli (ECHCG); assay: as above; details: 312 h, rate 1000 g/ha, evaluated after 13 days, read-out: Pre-emergence activity ECHCG (100=total damage to plant; 0=no damage to plant)
Outline: as §1

[7] = system: Alopecurus myosuroides (ALOMY); assay: Example B post-emergence herbicidal activity, glasshouse pot test; details: 312 h, rate 1000 g/ha, evaluated after 13 days, read-out: Post-emergence activity ALOMY (100=total damage to plant; 0=no damage to plant)
Outline: as §1

[8] = system: Amaranthus retroflexus (AMARE); assay: as above; details: 312 h, rate 1000 g/ha, evaluated after 13 days, read-out: Post-emergence activity AMARE (100=total damage to plant; 0=no damage to plant)
Outline: as §1

Avena fatua (AVEFA) [9] = assay: as above; details: 312 h, rate 1000 g/ha, evaluated after 13 days, read-out: Post-emergence activity AVEFA (100=total damage to plant; 0=no damage to plant)
Outline: as §1

Solanum nigrum (SOLNI) [10] = assay: as above; details: 312 h, rate 1000 g/ha, evaluated after 13 days, read-out: Post-emergence activity SOLNI (100=total damage to plant; 0=no damage to plant)
Outline: as §1

Setaria faberi (SETFA) [11] = assay: as above; details: 312 h, rate 1000 g/ha, evaluated after 13 days, read-out: Post-emergence activity SETFA (100=total damage to plant; 0=no damage to plant)
Outline: as §1

[12] = system: Echinochloa crus-galli (ECHCG); assay: as above; details: 312 h, rate 1000 g/ha, evaluated after 13 days, read-out: Post-emergence activity ECHCG (100=total damage to plant; 0=no damage to plant)
Outline: as §1

| Structure (SMILES) | pest or weed control at 1000 g/ha [1] | pest or weed control at 1000 g/ha [2] | pest or weed control at 1000 g/ha (Avena fatua (AVEFA) [3]) | pest or weed control at 1000 g/ha (Solanum nigrum (SOLNI) [4]) | pest or weed control at 1000 g/ha (Setaria faberi (SETFA) [5]) | pest or weed control at 1000 g/ha [6] | pest or weed control at 1000 g/ha [7] | pest or weed control at 1000 g/ha [8] | pest or weed control at 1000 g/ha (Avena fatua (AVEFA) [9]) | pest or weed control at 1000 g/ha (Solanum nigrum (SOLNI) [10]) | pest or weed control at 1000 g/ha (Setaria faberi (SETFA) [11]) | pest or weed control at 1000 g/ha [12] |
| --- | --- | --- | --- | --- | --- | --- | --- | --- | --- | --- | --- | --- |
| Cc1ccc(-c2ccc(C(C)(C)C)cc2)cc1C1=C(O)C(C)(C)OC(C)(C)C1=O [Compound A-21] | 100% | 60% | 50% | 50% | 100% | 90% | 40% | 20% | 60% | 20% | 60% | 90% |
| Cc1ccc(-c2cccc(C#N)c2)cc1C1=C(O)C(C)(C)OC(C)(C)C1=O [Compound A-22] | 40% | 30% | 20% | 60% | 40% | 90% | 30% | 0% | 0% | 90% | 20% | 80% |
| Cc1ccc(-c2ccc(F)c(F)c2)cc1C1=C(O)C(C)(C)OC(C)(C)C1=O [Compound A-24] | 80% | 20% | 60% | 20% | 90% | 100% | 100% | 90% | 80% | 70% | 100% | 100% |
| Cc1ccc(-c2cc(F)cc(F)c2)cc1C1=C(O)C(C)(C)OC(C)(C)C1=O [Compound A-25] | 70% | 0% | 30% | 0% | 20% | 80% | 70% | 100% | 0% | 70% | 70% | 90% |
| Cc1ccc(-c2ccc(F)cc2F)cc1C1=C(O)C(C)(C)OC(C)(C)C1=O [Compound A-27] | 80% | 10% | 60% | 20% | 90% | 100% | 80% | 100% | 80% | 50% | 100% | 100% |
| Cc1ccc(-c2cc(F)c(F)c(F)c2)cc1C1=C(O)C(C)(C)OC(C)(C)C1=O [Compound A-31] | 50% | 0% | 0% | 0% | 100% | 100% | 100% | 0% | 90% | 60% | 100% | 100% |
| Cc1ccc(-c2ccc(Cl)nc2)cc1C1=C(O)C(C)(C)OC(C)(C)C1=O [Compound A-54] | 70% | 20% | 80% | 0% | 90% | 100% | 80% | 0% | 50% | 0% | 80% | 90% |
| Cc1ccc(-c2ccc(Cl)nc2C)cc1C1=C(O)C(C)(C)OC(C)(C)C1=O [Compound A-56] | 10% | 0% | 40% | 20% | 0% | 30% | 80% | 20% | 50% | 20% | 80% | 80% |
| Cc1ccc(-c2ccc(Cl)nc2Cl)cc1C1=C(O)C(C)(C)OC(C)(C)C1=O [Compound A-58] | 80% | 20% | 60% | 20% | 100% | 100% | 90% | 70% | 90% | 30% | 90% | 100% |
| CCc1ccc(-c2ccc(Cl)c(C)c2)cc1C1=C(O)C(C)(C)C(=O)C(C)(C)C1=O [Compound B-2] | 0% | 90% | 20% | 30% | 0% | 70% | 0% | 70% | 0% | 40% | 20% | 80% |
| Cc1ccc(-c2ccc(Cl)cc2)cc1C1=C(O)C(C)(C)C(=O)C(C)(C)C1=O [Compound B-4] | 0% | 0% | 0% | 0% | 0% | 30% | 80% | 70% | 30% | 40% | 90% | 90% |
| Cc1ccc(-c2ccc(Cl)nc2C)cc1C1=C(O)C(C)(C)C(=O)C(C)(C)C1=O [Compound B-6] | 0% | 100% | 0% | 90% | 0% | 0% | 20% | 0% | 0% | 0% | 30% | 50% |
| Cc1ccc(-c2ccc(Cl)cc2Cl)cc1C1=C(O)C(C)(C)C(=O)C(C)(C)C1=O [Compound B-7] | 0% | 0% | 0% | 20% | 60% | 50% | 20% | 70% | 20% | 70% | 70% | 60% |

— US8680012B2, “4-phenyl-pyrane-3,5-diones,4-phenyl-thiopyrane-3,6-diones and cyclohexanetriones as novel herbicides” (Syngenta Crop Protection LLC, priority 2006, dated 2014)
